For assay [1], the target named is muscarinic cholinergic receptors. The assay is described as follows: ^3H-oxotremorine-M binding inhibition. To be noted: inhibition of binding of ^3H-oxotremorine-M; read-out: inhibition costant (Ki).
For the next assay, the target named is m4 receptors (Homo sapiens, UniProt P08173). The format is cell-based. To be noted: CHO m4 cells treated with pertussis toxin.
Chain of m4 receptors (P08173 whole entry): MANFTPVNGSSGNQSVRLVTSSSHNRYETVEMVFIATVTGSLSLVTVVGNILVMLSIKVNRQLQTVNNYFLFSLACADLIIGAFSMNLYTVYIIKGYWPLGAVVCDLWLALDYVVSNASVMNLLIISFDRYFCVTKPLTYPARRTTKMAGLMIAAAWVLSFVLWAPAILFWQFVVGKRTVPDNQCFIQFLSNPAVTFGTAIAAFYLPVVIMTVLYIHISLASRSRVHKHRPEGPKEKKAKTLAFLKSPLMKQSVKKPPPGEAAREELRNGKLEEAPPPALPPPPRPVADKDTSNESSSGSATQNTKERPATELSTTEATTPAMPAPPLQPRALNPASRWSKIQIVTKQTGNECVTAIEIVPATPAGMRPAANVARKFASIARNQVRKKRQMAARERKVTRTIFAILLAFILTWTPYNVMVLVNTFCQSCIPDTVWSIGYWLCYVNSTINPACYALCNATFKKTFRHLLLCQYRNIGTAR

What is called Ki is a dissociation constant, usually derived from enzyme kinetics or from competition with a known ligand. Regarding `CCCCCCOc1nsnc1C1=CCCN(C)C1` [Xanomeline, 3-(4-hexyloxy-1,2,5-thiadiazol-3-yl)-1,2,5,6-tetrahydro-1-methylpyridine], in assay [1], the Ki was 2 nM. Besides, the “formation of cAMP” value on m4 receptors is “efficaciously and potently stimulated the formation of cAMP”.
